Source: US8912121B2, “Herbicidal compositions comprising 4-amino-3-chloro-5-fluoro-6-(4-chloro-2-fluoro-3-methoxyphenyl)pyridine-2-carboxylic acid or a derivative thereof and certain PS II inhibitors” (Dow Agrosciences LLC, priority 2012, dated 2014)

Tested on: LEFCH (Leptochloa chinensis, Chinese sprangletop)
Experiment: In-water applied mixtures, transplanted paddy rice, greenhouse
Type: in vivo, Leptochloa chinensis (L.) Nees
Method: Weed seeds or nutlets of the desired test plant species were planted in puddled soil (mud) prepared by mixing a shredded, non-sterilized mineral soil (50.5 percent silt, 25.5 percent clay, and 24 percent sand, with a pH of about 7.6 and an organic matter content of about 2.9 percent) and water at a 1:1 volumetric ratio. The prepared mud was dispensed in 365 mL aliquots into 16-ounce (oz.) non-perforated plastic pots with a surface area of 86.59 square centimeters (cm^2) leaving a headspace of 3 centimeters (cm) in each pot Mud was allowed to dry overnight prior to planting or transplanting. Rice seeds were planted in Sun Gro MetroMix® 306 planting mixture, which typically has a pH of 6.0 to 6.8 and an organic matter content of about 30 percent, in plastic plug trays. Seedlings at the second or third leaf stage of growth were transplanted into 840 mL of mud contained in 32-oz. non-perforated plastic pots with a surface area of 86.59 cm^2 4 days prior to herbicide application. The paddy was created by filling the headspace of the pots with 2.5 to 3 cm of water. When required to ensure good germination and healthy plants, a fungicide treatment and/or other chemical or physical treatment was applied. The plants were grown for 4-22 days in a greenhouse with an approximate 14 h photoperiod which was maintained at about 29° C during the day and 26° C. during the night. Nutrients were added as Osmocote® (19:6:12, N:P:K+ minor nutrients) at 2 g per 16-oz. pot and 4 g per 32-oz. pot. Water was added on a regular basis to maintain the paddy flood, and supplemental lighting was provided with overhead metal halide 1000-Watt lamps as necessary. The plants were employed for testing when they reached the first through fourth true leaf stage.
Treatments consisted of the acid or esters of 4-amino-3-chloro-5-fluoro-6-(4-chloro-2-fluoro-3-methoxy-phenyl)pyridine-2-carboxylic acid (compound A) each formulated as an SC (suspension concentrate) and various herbicidal components alone and in combination. Forms of compound A were applied on an acid equivalent basis.
Other herbicidal components were applied on an active ingredient basis and included photosystem II (PSII)-inhibits propanil formulated as […] bentazon-sodium formulated as Basagran®, and simetryne (technical grade material).
Treatment requirements for each compound or herbicidal component were calculated based upon the rates being tested, the concentration of active ingredient or acid equivalent in the formulation, an application volume of 2 mL per component per pot, and an application area of 86.59 cm^2 per pot.
For formulated compounds, a measured amount was placed in an individual 100 or 200 mL glass vial and was dissolved in a volume of 1.25% (v/v) Agri-Dex® crop oil concentrate to obtain application solutions.
For technical grade compounds, a weighed amount was placed in an individual 100 to 200 mL glass vial and was dissolved in a volume of acetone to obtain concentrated stock solutions. […] The concentrated stock solutions obtained were diluted with an equivalent volume of an aqueous mixture containing 2.5% (v/v) crop oil concentrate so that the final application solutions contained 1.25% (v/v) crop oil concentrate.
Applications were made by injecting with a pipetter appropriate amounts of the application solutions, individually and sequentially, into the aqueous layer of the paddy. Control plants were treated in the same manner with the solvent blank. Applications were made so that all treated plant material received the same concentrations of acetone and crop oil concentrate.
The treated plants and control plants were placed in a greenhouse as described above and water was added as needed to maintain a paddy flood. After approximately 3 weeks the condition of the test plants as compared with that of the untreated plants was determined visually and scored on a scale of 0 to 100 percent where 0 corresponds to no injury or growth inhibition and 100 corresponds to complete kill. […]

| SMILES | Visual Weed Control (%) Obs (8.75 g ae/ha, 21 DAA) | Visual Weed Control (%) Obs (17.5 g ae/ha, 21 DAA) | Visual Weed Control (%) Obs (42.4 g ae/ha, 20 DAA) | Visual Weed Control (%) Obs (84.8 g ae/ha, 20 DAA) | Visual Weed Control (%) Obs (35 g ae/ha, 21 DAA) | Visual Weed Control (%) Obs (70 g ae/ha, 20 DAA) |
| --- | --- | --- | --- | --- | --- | --- |
| COc1c(Cl)ccc(-c2nc(C(=O)O)c(Cl)c(N)c2F)c1F [Compound A Acid, 4-amino-3-chloro-6-(4-chloro-2-fluoro-3-methoxyphenyl)-5-fluoropyridine-2-carboxylic acid] | 0% | 0% | 15% | 55% |  |  |
| COc1c(Cl)ccc(-c2nc(C(=O)OCc3ccccc3)c(Cl)c(N)c2F)c1F [Compound A Benzyl Ester, benzyl ester of 4-amino-3-chloro-5-fluoro-6-(4-chloro-2-fluoro-3-methoxy-phenyl)pyridine-2-carboxylic acid] | 20% | 30% |  |  | 55% | 80% |
